“And” between values parts separate entries of the source, which are not always exact repeats. Equal entries are not always repeated. Where two headings read alike, the source gives them in different places.
Legend:
[1] = test system: Amaranthus rudis (AMATA), tall water hemp; experiment: Postemergence herbicide evaluation, growth of Amaranthus rudis (AMATA); type: in vivo; details: Amaranthus tuberculatus, post-emergence, read-out: Ave. AMATA
[2] = test system: Ambrosia artemisiifolia (AMBEL), common ragweed; experiment: Postemergence herbicide evaluation, growth of Ambrosia artemisiifolia (AMBEL); type: in vivo; details: Ambrosia artemisiifolia, post-emergence, read-out: AVE. AMBEL
[3] = test system: Chenopodium album (CHEAL), common lambsquarters; experiment: Postemergence herbicide evaluation, growth of Chenopodium album (CHEAL); type: in vivo; details: Chenopodium album, post-emergence, read-out: Ave. CHEAL
[4] = Volatility of compounds measured by thermogravimetric analysis (TGA); type: physicochemical
[5] = test system: Abutilon theophrasti (ABUTH), velvetleaf; experiment: Postemergence herbicide evaluation, growth of Abutilon theophrasti (ABUTH); type: in vivo; details: Abutilon theophrasti, post-emergence, read-out: AVE. ABUTH
[6] = test system: weeds ABUTH, AMATA, AMBEL, CHEAL, ERICA; experiment: Postemergence herbicide evaluation, overall average % weed control across ABUTH, AMATA, AMBEL, CHEAL and ERICA; type: in vivo; details: post-emergence, read-out: Overall Ave % Weed Control

Structure (SMILES)	pest or weed control at 280 g/ha ([1]; 168 h) [%]	pest or weed control at 280 g/ha ([1]; 336 h) [%]	pest or weed control at 560 g/ha ([1]; 336 h) [%]	pest or weed control at 280 g/ha ([1]; 504 h) [%]	pest or weed control at 560 g/ha ([1]; 504 h) [%]	pest or weed control at 560 g/ha ([2]; 168 h) [%]	pest or weed control at 280 g/ha ([2]; 336 h) [%]	pest or weed control at 280 g/ha ([2]; 504 h) [%]	pest or weed control at 560 g/ha ([2]; 504 h) [%]	pest or weed control at 280 g/ha ([3]; 168 h) [%]	pest or weed control at 560 g/ha ([3]; 168 h) [%]	pest or weed control at 280 g/ha ([3]; 336 h) [%]	pest or weed control at 560 g/ha ([3]; 336 h) [%]	pest or weed control at 280 g/ha ([3]; 504 h) [%]	pest or weed control at 560 g/ha ([3]; 504 h) [%]	TGA Data (rate of weight loss, volatility) [4]	pest or weed control at 280 g/ha ([5]; 504 h) [%]	pest or weed control at 560 g/ha ([5]; 504 h) [%]	pest or weed control at 280 g/ha ([6]; 504 h) [%]	pest or weed control at 560 g/ha ([6]; 504 h) [%]	further results
O=C(COc1ccc(Cl)cc1Cl)OCCCCCOC(=O)COc1ccc(Cl)cc1Cl [Compound B8]	84	92.5	96.5	92.5	100	72.5	90	100	100	80	82.5	92.5	97	96	99.5	0.3521 µg/min and 0.38 µg/min	97	99	96.8	99.7	pest or weed control at 280 g/ha ([6]; 168 h): 74.3%; pest or weed control at 560 g/ha ([6]; 168 h): 79.8%; pest or weed control at 280 g/ha ([6]; 336 h): 90.4%; pest or weed control at 560 g/ha ([6]; 336 h): 95.9%
O=C(COc1ccc(Cl)cc1Cl)OCCOC(=O)COc1ccc(Cl)cc1Cl [Compound B9]	72.5	91	90	70	82.5	74	70	100	100	82.5	77.5	94	95	97.5	92.5	0.1482 µg/min	98.5	75	92.5	89.9	pest or weed control at 560 g/ha ([1]; 168 h): 77.5%; pest or weed control at 280 g/ha ([2]; 168 h): 77.5%; pest or weed control at 560 g/ha ([2]; 336 h): 85%; pest or weed control at 280 g/ha ([5]; 168 h): 57.5%; pest or weed control at 560 g/ha ([5]; 168 h): 57.5%; pest or weed control at 280 g/ha ([5]; 336 h): 77.5%; pest or weed control at 560 g/ha ([5]; 336 h): 70%; pest or weed control at 280 g/ha ([6]; 168 h): 75%; pest or weed control at 560 g/ha ([6]; 168 h): 72.3%; pest or weed control at 280 g/ha ([6]; 336 h): 86.5%; pest or weed control at 560 g/ha ([6]; 336 h): 86.6%
O=C(COc1ccc(Cl)cc1Cl)OCCCOC(=O)COc1ccc(Cl)cc1Cl [Compound B10]	70	77.5	80	67.5	55	57.5	67.5	90	75	77.5	72.5	75	90	88.5	85	0.02488 µg/min	25	27.5	72.2	68	pest or weed control at 560 g/ha ([1]; 168 h): 62.5%; pest or weed control at 280 g/ha ([2]; 168 h): 62.5%; pest or weed control at 560 g/ha ([2]; 336 h): 67.5%; pest or weed control at 280 g/ha ([5]; 168 h): 27.5%; pest or weed control at 560 g/ha ([5]; 168 h): 22.5%; pest or weed control at 280 g/ha ([5]; 336 h): 25%; pest or weed control at 560 g/ha ([5]; 336 h): 32.5%; pest or weed control at 280 g/ha ([6]; 168 h): 62%; pest or weed control at 560 g/ha ([6]; 168 h): 58%; pest or weed control at 280 g/ha ([6]; 336 h): 64.5%; pest or weed control at 560 g/ha ([6]; 336 h): 69.9%
O=C(COc1ccc(Cl)cc1Cl)OCCCCCCOC(=O)COc1ccc(Cl)cc1Cl [Compound B12]	–	–	–	62.5	62.5	–	–	100	100	–	–	–	–	96.5	90	0.2274 µg/min	55	65	82	82.9	–
O=C(COc1ccc(Cl)cc1Cl)OCCOCCOCCOC(=O)COc1ccc(Cl)cc1Cl [Compound B13]	67.5	95	87.5	65	67.5	88.5	72.5	100	99	80	82.5	96.5	98	98.5	95	0.2318 µg/min	67.5	62.5	86	84.5	pest or weed control at 560 g/ha ([1]; 168 h): 75%; pest or weed control at 280 g/ha ([2]; 168 h): 72.5%; pest or weed control at 560 g/ha ([2]; 336 h): 75%; pest or weed control at 280 g/ha ([5]; 168 h): 55%; pest or weed control at 560 g/ha ([5]; 168 h): 45%; pest or weed control at 280 g/ha ([5]; 336 h): 62.5%; pest or weed control at 560 g/ha ([5]; 336 h): 57.5%; pest or weed control at 280 g/ha ([6]; 168 h): 72%; pest or weed control at 560 g/ha ([6]; 168 h): 75.7%; pest or weed control at 280 g/ha ([6]; 336 h): 83.6%; pest or weed control at 560 g/ha ([6]; 336 h): 82.6%
